Values joined by “and” are separate entries in the source; they are usually repeats but may differ in a detail not shown here. Equal entries are not always repeated.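 These data come from cells grown in 96-well plates and exposed to compound for 48 hours at five concentrations. At the GI50, growth is halved.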 Active and inactive are the calls of the source. No stated cut-off is given here; in the data, active = GI50 up to about 1.1 µM and inactive = higher.

This note sets out measurements from ChEMBL document CHEMBL1201862, “PubChem BioAssay data set” (2004).

What all share (assay): inhibition of tumour cell growth, NCI panel, 48 h
Experiment [1] has as its system ACHN.
For experiment [2], the system named is CCRF-CEM.
Experiment [3] deals with HCT-15.
In experiment [4] the test system is HL-60.
The test system of experiment [5] is HOP-18.
Experiment [6] relates to LXFL 529.
Experiment [7] concerns M14.
Experiment [8] has as its system M19-MEL.
Experiment [9] concerns NCI-H460.
The test system of experiment [10] is SNB-78.
Experiment [11] concerns UACC-257.
In experiment [12] the test system is DU-145.
In experiment [13] the test system is Hs-578T.
Experiment [14] concerns MCF7.
In experiment [15] the test system is Malme-3M.
In experiment [16] the test system is NCI/ADR-RES.
For experiment [17], the system named is PC-3.
Experiment [18] relates to SF-295.
Experiment [19] relates to DLD-1.
Experiment [20] deals with NCI-H522.

In the case of `CCNc1nnc(-c2nsc3ccccc23)s1`, the GI50 in [1] is 62.4 µM (inactive); in experiment [2], > 100 µM (inactive); in [3], over 100 µM; in [4] it was > 100 µM (inactive); in experiment [5], 11.5 µM (inactive); in experiment [6], 94.2 µM (inactive). The GI50 in experiment [7] is > 100 µM (inactive); in experiment [8], > 100 µM (inactive); in experiment [9] it was 33.2 µM (inactive); in [10], 62.1 µM (inactive); in [11], > 100 µM (inactive).
For `CN(C)c1ccc(/C=C2\C[C@H]3[C@@H]4CCc5cc(O)ccc5[C@H]4CC[C@]3(C)C2=O)cc1`, the GI50 was 56.1 µM (inactive) in experiment [1]; > 100 µM (inactive) in [2]; > 100 µM (inactive) in experiment [12]; over 100 µM in [3]; 10.5 µM (inactive) in experiment [13]; > 100 µM (inactive) in experiment [7]. For the same compound, the GI50 was > 100 µM (inactive) in experiment [14]; > 100 µM (inactive) in experiment [15]; > 100 µM (inactive) in experiment [9]; > 100 µM (inactive) in [16]; > 100 µM (inactive) in [17]; 32.6 µM (inactive) in experiment [18]. In [11], the GI50 is > 100 µM (inactive).
Take `COc1cc2c3cc1Oc1c(OC)c(OC)cc4c1C(Cc1ccc(cc1)Oc1cc(ccc1O)CC3N(C)CC2)N(C)CC4` (stereo not given): the GI50 in [19] is 11.4 µM (inactive); in experiment [12] it was 10.6 µM (inactive); in experiment [5], > 100 µM (inactive); in [13] it was 10.8 µM (inactive); in [6], 13.6 µM (inactive); in [7] it was 1.87 µM (inactive) and 2 µM (inactive). The GI50 in [8] is 11.9 µM (inactive); in experiment [14], 6.44 µM (inactive); in experiment [15], 7.01 µM (inactive) and 14 µM (inactive); in experiment [16], 19.3 µM (inactive); in experiment [17] it was 10.4 µM (inactive); in experiment [10], 20.9 µM (inactive).
As to `Cc1c2cnccc2c(C)c2c1c1ccccc1n2CCCCCCCl`, the GI50 in experiment [2] was 32.7 µM (inactive); in experiment [19] it was > 50 µM (inactive); in experiment [3] it was over 50 µM; in experiment [4], 10.1 µM (inactive); in [5], > 7.93 µM (inactive); in [8], 40 µM (inactive). Also, the GI50 in [14] is > 50 µM (inactive); in experiment [15] it was > 50 µM (inactive); in experiment [9], 29.4 µM (inactive); in experiment [20] it was > 50 µM (inactive); in experiment [16], > 46.3 µM (inactive); in [18] it was 48.9 µM (inactive). In addition, the figures for the GI50 in [10] and in experiment [11] were 32.9 µM (inactive) and > 33.1 µM (inactive), respectively.
`COc1cccc(NC(=O)CC(=O)NNCC(=O)Nc2nnc(-c3ccc(N(CCC#N)S(=O)(=O)c4ccccc4)cc3)s2)c1`: the GI50 in [1] is 34.8 µM (inactive); in experiment [19], 45.1 µM (inactive); in experiment [3], over 100 µM; in [5] it was > 100 µM (inactive); in experiment [6], 66.4 µM (inactive); in [8], 44.1 µM (inactive). Also, the GI50 is 40.7 µM (inactive) in experiment [15], 39 µM (inactive) in experiment [20], 87.1 µM (inactive) in experiment [18] and > 100 µM (inactive) in experiment [10].
As for `COc1ccc(/C(Cl)=C(\C=O)c2ccc(Cl)c(Cl)c2)cc1OC`, the GI50 was 4.56 µM (inactive) in experiment [1]; 2.73 µM (inactive) in [2]; 4.46 µM (inactive) in [19]; 4.34 µM in experiment [3]; 2.7 µM (inactive) in experiment [4]; 6.76 µM (inactive) in experiment [5]. For the same compound, the GI50 in [6] was 3.55 µM (inactive); in experiment [7], 7.1 µM (inactive); in experiment [8], 8.11 µM (inactive); in [15] it was 18.3 µM (inactive); in experiment [9], 3.4 µM (inactive); in [20], 2.36 µM (inactive). Moreover, the values for the GI50 in [18] and in experiment [10] were 3.79 µM (inactive) and 4.28 µM (inactive), respectively.
`CCc1cc(=O)n(/C(C)=C/c2ccccc2)n1C`: the GI50 in experiment [1], in experiment [2], in experiment [12], in experiment [13], in experiment [7] and in experiment [14] was > 100 µM (inactive) each time. The GI50 in [9], in experiment [16], in experiment [17], in experiment [18] and in [11] was > 100 µM (inactive) throughout.
